Patent publication US5574026A, “Methods for inhibiting angiogenesis proliferation of endothelial or tumor cells and tumor growth” (American Cyanamid Company, priority 1994, dated 1996)
Values after ≈ are worked out from the molar mass of the structure shown. “Also recorded” adds a separate entry of the source. Where a name gives a salt, the structure may show the parent alone.

What was measured:
[1] = tested on: A2780S; assay: Antiproliferative activity in human tumor cell lines, PROTOCOL 1 and PROTOCOL 2; type: cell-based; conditions: ovarian tumor cell line A2780S, 48 hours, read-out: IC50
Experimental: (§1) The assays are identified as follows: PROTOCOLS 1, 2, and 3 are described in greater detail hereinbelow. In general, according to PROTOCOLS 1 and 2, the target ABAE and/or Human Tumor cells are exposed to the compounds of Formula I for 48 hours. PROTOCOL 3 exposes ABAE cells to the compounds for 4 days. A detailed description of the Protocols is as follows: Antiproliferative Activity in Human Tumor Cell Lines The antiproliferative activity of the compounds of Formula I of the present invention is evaluated in a panel comprised of human tumor cell lines. […] Cultures are renewed after 20 passages with cells from a fresh stock of batch-frozen early passage cells. Cell lines are routinely checked for mycoplasma contamination (Genprobe). In a laminar flow hood, cells (1-5×10^4) are plated into 96-well microtiter plates in a volume of 0.1 ml/well with a bulk microtiter dispenser (Denley). […] Compounds are added using a Tomtec dispenser which simultaneously dispenses from one 96-well plate, containing the drug dilutions, to the plates containing the cells. After two days of continuous drug exposure, 50% cold trichloroacetic acid (TCA) is added to 10% final concentration to fix the cells, and after 60 minutes at 4° C., the TCA is aspirated and the plates are washed 5 times with deionized water using a microtiter plate washer. […] A 0.4% solution of the dye, sulforhodamine B, in glacial acetic acid is added to the plates, and the plates are washed 5 times with 1% glacial acetic acid using the automatic plate washed. The bound stain is solubilized with 0.1 ml of 10 mMTris base. The optical densities are read from an automatic spectrophotometric plate reader (Dynatech) directly to a main frame computer (VAX 8600). Positive controls, that include standard chemotherapeutic drugs (i.e., adriamycin, cisplatin, etc.), are included in every experiment. Background optical density measurements (complete media--cells, and complete media+drug-cells) are automatically subtracted from the appropriate control and test wells. Mean values and standard errors are determined from duplicate wells. A measure is also made of the optical density at time when the drugs are added. The number of cells after treatment (P), as % of control, is calculated for every concentration of drug, as follows: [formula] wherein: T is optical density measurement for treated cells after 48 hours; C is optical density measurement for untreated cells after 48 hours; Co is optical density measurement for cells at the time of drug addition. IC50 of Growth inhibition is calculated from the sets of P values using the RS-1 data package (BBN Software). Antiproliferative Activity in Human Tumor and Adult Bovine Aortic Endothelial Cell Lines (ABAE) The antiproliferative activity of the compounds of Formula I is evaluated in a panel comprised of human tumor cell lines as listed in Protocol 1 as well as an adult bovine aortic endothelial cell line (ABAE). This assay is a modification of PROTOCOL 1.

[2] = tested on: HTB 161; assay: as above; type: cell-based; conditions: HTB 161, 48 hours
Experimental: as §1

[3] = tested on: Adult Bovine Aortic Endothelial (ABAE) cell line; assay: Antiproliferative activity in Adult Bovine Aortic Endothelial (ABAE) cell line, PROTOCOL 3 (4 days, cell count); type: cell-based
Experimental: The antiproliferative activity of the compounds of Formula I in an Adult Bovine Aortic Endothelial (ABAE) cell line and in Human Tumor cells lines is evaluated in three similar assays that measure growth inhibition. The assays are identified as follows:
PROTOCOLS 1, 2, and 3 are described in greater detail hereinbelow. In general, according to PROTOCOLS 1 and 2, the target ABAE and/or Human Tumor cells are exposed to the compounds of Formula I for 48 hours. PROTOCOL 3 exposes ABAE cells to the compounds for 4 days. A detailed description of the Protocols is as follows:
Antiproliferative Activity in Adult Bovine Aortic Endothelial (ABAE) Cell Line
ABAE cells are grown in DMEM media (Mediatech, Washington, D.C.) supplemented with 10% calf serum (Hyclone). ABAE cells are plated in 24-well dishes at 8,000 cells/well, followed by the addition of increasing concentrations of 7-halogen-9-[hydrogen or [(substituted glycyl)amido]]-6-demethyl-6-deoxytetracycline. After four days, the cells are detached and counted. […] The growth inhibition (I) as % of control is calculated as follows: [formula] wherein: Nc is the number of cells in untreated wells;
Nt is the number of cells in treated wells;
No is the number of plated cells.
IC50 of growth inhibition is determined from the sets of I values plotted by Kaleidograph software (Abelbeck Software).
Table 1 presents the results depicting the antiproliferative activity of the compounds of Formula I against an ABAE cell line, as evaluated by PROTOCOL 2 and PROTOCOL 3. The results are presented in terms of IC50 and are as follows.

[4] = tested on: angiogenesis; conditions: Brem et al; in words; cited from earlier work
[5] = tested on: tumor; conditions: Teicher et al; used in conjunction with cancer chemotherapy or radiation therapy; cited from earlier work

CN(C)[C@@H]1C(O)=C(C(N)=O)C(=O)[C@@]2(O)C(O)=C3C(=O)c4c(O)ccc(Br)c4CC3CC12 (stereo partly drawn) [Example 8, [4S-(4α,12aα)]-7-Bromo-4-(dimethylamino)-1,4,4a,5,5a,-6,11,12a-octahydro-3,10,12,12a-tetrahydroxy-1,11-dioxo-2-naphthacenecarboxamide sulfate]
IC50 [1]: 0.6 µg/mL
IC50 [2]: 0.6 µg/mL

CN(C)[C@@H]1C(O)=C(C(N)=O)C(=O)[C@@]2(O)C(O)=C3C(=O)c4c(O)ccc(I)c4CC3CC12 (stereo partly drawn) [Example 10, [4S-(4α,12aα)]-4-(Dimethylamino)-4,4,4a,5,5a,6,11,12a-octahydro-3,10,12,12a-tetrahydroxy-7-iodo-1,11-dioxo-2-naphthacenecarboxamide]
IC50 [1]: 0.7 µg/mL (≈ 1.3 µM)
IC50 [2]: 0.7 µg/mL (≈ 1.3 µM)

CN(C)c1ccc(O)c2c1C[C@H]1C[C@H]3[C@H](N(C)C)C(O)=C(C(N)=O)C(=O)[C@@]3(O)C(O)=C1C2=O [Minocycline, reference compound]
IC50 ([3]; Bos taurus, 96 h, ABAE cells, PROTOCOL 3, 4 days, read-out: IC50 PROTOCOL 3): ≥ 50 µg/mL
activity upon incubation with cells ([3]; FIG. 1, 4 day assay (Protocol 3), in words): losing its activity upon incubation with cells
inhibition of angiogenesis [4]: inhibits angiogenesis to an extent comparable to that of the combination therapy of heparin and cortisone; also recorded: useful as inhibitors of angiogenesis
number of metastases with chemotherapy or radiation therapy [5]: the number of metastases is reduced
tumor growth with chemotherapy or radiation therapy [5]: tumor growth is decreased
